How the values were obtained:
Assay type in all cases: in vivo, rat
[1] = Plasma FSH levels in male rats of varying hormonal status; conditions: 0.5 mg/day; for Plasma FSH levels: 14 days, n = 5
Source text: (§1) Compound VI and Compound VII were synthesized and characterized in the laboratory of Dr. Duane Miller at the University of Tennessee, Memphis, Tenn. Male Sprague-Dawley rats were purchased from Harlan Biosciences (Indianapolis, Ind.). The animals were maintained on a 12-h cycle of light and dark with food and water available ad libitum. All animal studies were reviewed and approved by the Animal Care and Use Committee of The Ohio State University, and conformed to the Principles of Laboratory Animal Care (NIH publication #85-23, revised 1985). Immature male Sprague-Dawley rats weighing 187 to 214 g were randomly distributed into 9 groups of 5 animals. One day before the initiation of drug treatment, groups 4 through 6 and groups 7 through 9 received unilateral or bilateral orchidectomy, respectively, via a midline scrotal incision. […] All drugs given to animals were freshly prepared as solutions in polyethylene glycol 300 (PEG 300). Groups 4 and 7 received treatment with vehicle alone (i.e., PEG 300). Animals in groups 3, 6, and 9 received testosterone propionate (TP, 0.5 mg/day) via implantation of subdermal osmotic pumps (Model 2002, Durect Corporation, Palo Alto, Calif.). Animals in groups 2, 5, and 8 received Compound VI or Compound VII (0.5 mg/day) via implantation of subdermal osmotic pumps. After 14 days of drug treatment, rats were weighed, anesthetized, and sacrificed. Blood samples were collected by venipuncture of the abdominal aorta. Plasma samples were analyzed for testosterone, FSH, LH and osteocalcin. Testosterone concentrations were measured by AniLytics Inc. (Gaithersburg, Md.). FSH and LH levels were measured by the National Hormone and Peptide Program (Dr. A F Parlow, UCLA, CA). Plasma osteocalcin levels were determined using a commercially available rat osteocalcin EIA kit from Biomedical Technologies Inc. (Stoughton, Mass.). The ventral prostates, seminal vesicles, and levator ani muscle were removed and weighed. Osmotic pumps were also removed from animals to check for correct pump operation. The weights of all organs were normalized to body weight, and analyzed for any statistically significant differences between groups using single-factor ANOVA with the alpha value set a priori at p<0.05. The weights of prostates and seminal vesicles were used as indices for evaluation of androgenic activity, and the levator ani muscle weight was used to evaluate the anabolic activity. Statistical analyses of parameters from complete blood count or serum chemical profiling, wherever applicable, were performed by single-factor ANOVA with the alpha value set a priori at p<0.05.

[2] = Plasma osteocalcin levels in male rats of varying hormonal status; conditions: 0.5 mg/day; for Plasma osteocalcin levels: 14 days, n = 5
Source text: as §1

[3] = tested on: female rats after ovariectomy; experiment: Bone biomechanical strength, cortical thickness, trabecular density and muscle mass in ovariectomized and intact female rats
Experimental: One hundred ten female rats were assigned to one of eleven treatment groups. Groups 1-8 were ovariectomized on day one of the study. Groups 9-11 were intact animals. Groups 1-6 received Compound VI by daily subcutaneous injection at doses of 0.1, 0.3, 0.5, 0.75, 1.0, and 3 mg/day, respectively. Groups 7 and 11 received dihydrotestosterone (DHT) at a dose of 1 mg/day. Groups 8 and 9 were ovariectomized and intact control groups, respectively. Group 10 received Compound VI at a dose of 1.0 mg/day. All animals were treated for 120 days. Bone mineral content (BMC) was determined using dual energy x-ray absorptiometry (DEXA) on days 1, 30, 60, 90, and 120.

## CC(=O)Nc1ccc(OC[C@](C)(O)C(=O)Nc2ccc([N+](=O)[O-])c(C(F)(F)F)c2)cc1 [Compound VI]
[1]; TP statement for castrated male rats
  effect on plasma FSH levels: no effect
[1]; castrated male rats
  Plasma FSH levels: 69.6 ± 11.7 ng/mL
[1]; hemi-orchidectomized male rats
  Plasma FSH levels: 15.2 ± 2.2 ng/mL
[1]; intact male rats
  Plasma FSH levels: 14.4 ± 1.7 ng/mL
[2]; Compound VI statement for hemi-orchidectomized and castrated animals
  effect on plasma osteocalcin levels: significant increase
[2]; castrated male rats
  Plasma osteocalcin levels: 94.215 ± 12.568 ng/mL
[2]; hemi-orchidectomized male rats
  Plasma osteocalcin levels: 89.804 ± 15.517 ng/mL
[2]; intact male rats
  Plasma osteocalcin levels: 55.584 ± 9.715 ng/mL
[3]; FIG. 11
  biomechanical strength of the L5 vertebra and femur: increased biomechanical strength
[3]; FIG. 12
  cortical thickness in the femoral mid-shaft: increased cortical thickness
[3]; OVX animals
  trabecular bone loss in the distal femur: only partially prevented trabecular bone loss
[3]; gonadectomized and intact animals
  muscle mass: increased muscle mass
[3]; intact animals
  trabecular density of the distal femur: proliferative effect

Source: patent US20050080054A1, “Treating androgen decline in aging male (ADAM)-associated conditions with SARMS” (priority 2002, published 2005)
